Measured values: patent publication US20070004689A1, “Antiangiogenic agents” (priority 2004, published 2007)
Where two headings read alike, the source gives them in different places.

Assays:
[1] = system: MDA-MB-231 a human breast carcinoma; test: BrdU proliferation assay, MDA-MB-231 (anti-tumor activity); format: cell-based
Excerpt: (§1) Cell Culture: Human umbilical vein endothelial cells (HUVEC) were obtained from Clonetics (San Diego, Calif.), MCF7 cells were the kind gift of Dr. Dorraya El Ashry (University of Michigan), MDA-MB-231 a human breast carcinoma, PC3 a human prostate carcinoma, and U87-MG a human glioma, cell lines were obtained from ATCC. HUVEC cultures were maintained for up to 5 passages in EGM containing bovine brain extract (Clonetics) and 1× antibiotic-antimycotic (BioWhittaker, Walkersville, Md.). MDA-MB-231, PC3, U87-MG and MCF-7 cells were maintained in DMEM/F12 (1:1) containing 10% (v/v) fetal bovine serum (Hyclone Laboratories, Logan, Utah) and 1× antibiotic-antimycotic. MCF7 cells were used between passage 60 and passage 100.
(§2) Proliferation Assays: Proliferation was measured by cell counting using a Coulter Zl cell counter (Coulter Corporation, Hialeah, Fla.) or by evaluation of DNA synthesis. Each condition was done in triplicate and experiments were repeated at least twice. To determine estrogenicity of the analogs, MCF7 estrogen-dependent proliferation assays were performed. The cells were seeded in complete media at 10,000 cells/well in a 24 well plate after allowing the cells to adhere overnight and the seeding density was determined by cell counts. Cells were washed with PBS (37° C.) and starved by placing them in IMEM-phenol red free media containing 2% charcoal-dextran fetal bovine-stripped serum (Valley Biomedical, Winchester, Va.) and 1× antibiotic-antimycotic. After 3 days of starvation, cells were treated with or without increasing concentrations of compounds, replacing the media every 2-3 days and counted after 7 days of treatment. In order to ensure that only the added test compounds stimulated growth, experiments were performed only with cell cultures that duplicated less than once during the starvation period. Values are expressed as MCF7 stimulation index (SI) relative to 2ME2 (defined as 1.00). A value less than 1.00 indicates reduced estrogenicity. Estradiol is used as a positive control.
(§3) To determine anti-tumor and anti-angiogenic activities of the analogs, proliferation assays were performed by evaluating detection of DNA synthesis by use of the 5-bromo-2′-deoxyuridine (BrdU) cell proliferation colorimetric ELISA kit from Roche (Indianapolis, Ind.) according to the manufacturer's instructions. For BrdU assays, the cells were seeded at 1,000 cells/well (MDA-MB-231, anti-tumor activity) or 3,000 cells/well (HUVEC, anti-angiogenic activity) in a 96 well plate, allowed to attach overnight and then exposed to the compound for 48 h. IC50 value is the concentration at which cell proliferation is inhibited by 50%.
(§4) Antiproliferative activity of the NCEs were assessed in tumor cell lines (MDA-MB-231 a breast carcinoma, PC3 a prostate carcinoma and U87-MG a glioma) and endothelial cells (HUVEC).

U87-MG a human glioma = test: Proliferation assay, U87-MG; format: cell-based
Excerpt: as §1, §2, §3, §4

[2] = system: PC3 a human prostate carcinoma; test: Proliferation assay, PC3; format: cell-based
Excerpt: as §1, §2, §3, §4

[3] = system: Human umbilical vein endothelial cells (HUVEC); test: BrdU proliferation assay, HUVEC (anti-angiogenic activity); format: cell-based
Excerpt: as §1, §2, §3, §4

[4] = Rat pharmacokinetics after oral delivery of 10 mg/kg, cyclodextrin formulation; format: in vivo; details: oral 10 mg/kg, female Sprague Dawley rats
Procedure: Pharmokinetics of the NCEs were assessed by LC/MS after oral delivery of 10 mg/kg to female Sprague Dawley rats using a cyclodextrin formulation.

MCF7 cells = test: MCF7 estrogen-dependent proliferation assay (estrogenicity); format: cell-based, human; details: stimulation index, 2ME2 defined as 1.00; less than 1.00 = reduced estrogenicity; 7 days of treatment
Excerpt: as §1
as §2, with “[…].” for “Values are expressed as MCF7 stimulation index (SI) relative to 2ME2 (defined as 1.00). A value less than 1.00 indicates reduced estrogenicity.”

[5] = system: Rat hepatocyte suspensions; test: Hepatocyte incubations, rat; format: in vitro ADME; details: rat hepatocytes, NR = no reaction
Procedure: (§5) Hepatocyte Incubations: An in vitro measure of metabolism using cells from rat and human liver. Rat and human hepatocyte suspensions (10^6 cells per mL of serum-free (H)CL15 culture medium) were incubated with 2 concentrations (1 and 5 μM) of each of the compounds. Stock solutions were prepared in DMSO, and were further diluted in culture medium to the final test concentrations. 7-Ethoxycoumarin (7-EC) were included as a positive control substrate for P450. A 0.1 M 7-EC stock solution was prepared in DMSO, and the final assay concentration was 100 μM. The reactions were initiated by the addition of the substrates, incubated at 37° C., and terminated after 0, 60 and 120 minutes by addition of acetonitrile. The positive 7-EC control reactions were stopped with perchloric acid or ZnSO4 and BaOH after 60-minutes of incubation. The reaction mixture was centrifuged to remove the cell debris, and the supernatant was used for subsequent analysis by HPLC/LC-MS. If necessary, the supernatants were flash frozen in liquid N2 and stored at −70° C. until further analysis. HPLC was used to analyze product formation from 7-EC. Analyses to determine the concentration of the test compounds were carried out using reverse phase HPLC with tandem mass spectrometric detection (LC-MS/MS). Samples were analyzed to measure the disappearance of parent compound over time. The rate of metabolism was estimated by fitting a curve to the data for each concentration against time using GraphPad Prism Version 3.02 software.

[6] = system: human hepatocyte suspensions; test: Hepatocyte incubations, human; format: in vitro ADME; details: human hepatocytes, NR = no reaction
Procedure: as §5

[7] = Example 2, Table VII, read-out: IC50 value (μM) MDA-MB-231
[8] = Example 2, Table VII, read-out: IC50 value (μM) U87-MG
[9] = Example 2, Table VII, read-out: IC50 value (μM) PC3
[10] = Example 2, Table VII, read-out: IC50 value (μM) HUVEC

Compound | IC50 [1, 7] | IC50 (U87-MG a human glioma; [8]) | IC50 [2, 9] | IC50 [3, 10] | AUCall [4] | Cmax [4] | Tmax [4] | T½ [4] | other results
COc1cc2c(cc1C(N)=O)CC[C@@H]1[C@@H]2CC[C@]2(C)[C@@H](OC)CC[C@@H]12 [ENMD-1756, 2,17β-(bismethoxy)estra-1,3,5(10)-triene-3-carboxamide] | 0.89 ± 0.21 µM | 0.71 ± 0.09 µM | 1.14 ± 0.45 µM | 0.62 µM | 1442 ng·h/mL | 665 ng/mL | 30 min | 53.4 min | 
COc1cc2c(cc1O)CC[C@@H]1[C@@H]2CC[C@]2(C)[C@@H](O)CC[C@@H]12 [Compound 1, 2-Methoxyestradiol, reference compound] |  |  |  |  |  |  |  |  | IC50 ([1]; Homo sapiens, MDA-MB-231, BrdU DNA synthesis, 48 h exposure, read-out: MDA-MB-231 (IC50 μM)): 0.69 ± 0.14 µM; IC50 (U87-MG a human glioma; Homo sapiens, U-87 MG, proliferation, read-out: U87-MG (IC50 μM)): 1.48 ± 0.62 µM; IC50 ([2]; Homo sapiens, proliferation, read-out: PC3 (IC50 μM)): 1.08 ± 0.5 µM; IC50 ([3]; Homo sapiens, HUVEC, BrdU DNA synthesis, 48 h exposure, read-out: HUVEC (IC50 μM)): 0.68 ± 0.15 µM; MCF7 SI Relative to 2ME2 (MCF7 cells): 1.00; Hepatocyte Rat 60/120′ (1 uM): 60′ ([5]; 1 uM, 60 minutes): 0/0; Hepatocyte Rat 60/120′ (1 uM): 120′ ([5]; 1 uM, 120 minutes): 0/0; Hepatocyte Rat 60/120′ (5 uM): 60′ ([5]; 5 uM, 60 minutes, unit assumed): 39%; Hepatocyte Rat 60/120′ (5 uM): 120′ ([5]; 5 uM, 120 minutes, unit assumed): 24%; Hepatocyte Human 60/120′ (1 uM): 60′ ([6]; 1 uM, 60 minutes): 0/0; Hepatocyte Human 60/120′ (1 uM): 120′ ([6]; 1 uM, 120 minutes): 0/0; Hepatocyte Human 60/120′ (5 uM): 60′ ([6]; 5 uM, 60 minutes): 20; Hepatocyte Human 60/120′ (5 uM): 120′ ([6]; 5 uM, 120 minutes): 0
COc1cc2c(cc1C(N)=O)CC[C@@H]1[C@@H]2CC[C@@]2(C)[C@H]1CCC21OCCO1 [ENMD-1565, 17-(1,3-dioxolane)-2-methoxyestra-1,3,5(10)-triene-3 carboxamide] | 1.21 ± 0.47 µM | 1.27 ± 0.44 µM | 1.91 ± 0.36 µM | 0.91 µM | 4657 ng·h/mL | 1379 ng/mL | 60 min | 97.8 min | 
